Here are results for 53 molecules from patent US20030031715A1, “Pharmaceutical applications of hydrotropic agents, polymers thereof, and hydrogels thereof” (priority 2000, published 2003).

In brackets after ≈: the same amount, converted by molar mass. Like-named read-outs stand apart in the source and are kept apart here. Where only a bound is given, the exact number is not on record here.

The nature of data set [1]: Paclitaxel aqueous solubility in the presence of hydrotropic agents, polymers and hydrogels (HPLC). Conditions: for hydrotropic effect for paclitaxel, in words: agent concentration as printed in parentheses in the text. As to the method:
The mobile phase consists of acetonitrile-water (45:55 v/v) with a flow rate of 1.0 ml/min.
To the filtered solution is added ethylene glycol dimethacrylate, a crosslinker at a concentration of 6 mol % to the monomer.

The nature of data set [2]: Water solubility (maximum solubility) of hydrotropic agents. Conditions: for solubility: water.
The conditions of data set [3]: log (CO/CW), octanol and water; cited from earlier work.
For data set [4] the following is noted: at 37° C.; cited from earlier work.
A short description of another data set: physchem. The note with it: water.

As to Pluronic F127, the “PTX Solubility” value in data set [1] was determined as 66 µg/mL.
On to Poly(Sodium 5-acrylamidosalicylate), for which the “PTX Solubility” value in data set [1] is 0 µg/mL.
Consider `Cc1ccc(S(=O)(=O)[O-])c(C)c1.[Na+]` [Sodium xylenesulfonate], for which the solubility (as a rule, the dissolved amount per volume that the medium holds) in data set [2] turned out to be 2500 mM.
As for `Fc1ccc(C(c2ccc(F)cc2)N2CCN(C/C=C/c3ccccc3)CC2)cc1` [Flunarizine], in data set [3], the “Partition Coefficient” value is reported as 4.70. In data set [4], the “Water Solubility (μM)” value was 1.0 µM and the “Water Solubility (μg/ml)” value is 0.4 µg/mL.
As for `C[C@]12CCC(=O)C=C1CC[C@@H]1[C@@H]2[C@@H](O)C[C@@]2(C)[C@H]1CC[C@]2(O)C(=O)CO` [Hydrocortisone], the “Partition Coefficient” value in data set [3] was 1.52.
Polyvinylpyrrolidone K-25: the “PTX Solubility” value in data set [1] came out at 3 µg/mL.
Take `O=c1[nH]c2ccccc2n1C1CCN(CCCC(c2ccc(F)cc2)c2ccc(F)cc2)CC1` [Pimozide]: in data set [3], the “Partition Coefficient” value is given as 4.50. Also, in data set [4], the “Water Solubility (μM)” value is 2.2 µM and the “Water Solubility (μg/ml)” value was 1.0 µg/mL.
In the case of `Cc1ccc(S(=O)(=O)[O-])cc1.[Na+]` [Sodium p-toluenesulfonate], the solubility in data set [2] was found to be 2500 mM.
With `CO[C@H]1C[C@@H]2CC[C@@H](C)[C@@](O)(O2)C(=O)C(=O)N2CCCC[C@H]2C(=O)O[C@H]([C@H](C)C[C@@H]2CC[C@@H](O)[C@H](OC)C2)CC(=O)[C@H](C)/C=C(\C)[C@@H](O)[C@@H](OC)C(=O)[C@H](C)C[C@H](C)/C=C/C=C/C=C/1C` [Rapamycin], in data set [4], the “Water Solubility (μM)” value was 3.3 µM and the “Water Solubility (μg/ml)” value was 3.0 µg/mL.
Regarding `C(=C\c1ccccc1)/CN1CCN(C(c2ccccc2)c2ccccc2)CC1` [Cinnarizine], in data set [4], the “Water Solubility (μM)” value is below 1.0 µM and the “Water Solubility (μg/ml)” value is below 0.4 µg/mL.
Regarding “Poly(6-allyloxy-N,N-diethylnicotinamide)”, the “PTX Solubility” value in data set [1] was found to be 149 µg/mL.
With `COC(=O)[C@H]1[C@H]2C[C@@H]3c4[nH]c5cc(OC)ccc5c4CCN3C[C@H]2C[C@@H](OC(=O)c2cc(OC)c(OC)c(OC)c2)[C@@H]1OC` [Reserpine], the “Partition Coefficient” value in data set [3] was 3.73. For the same molecule, in data set [4], the “Water Solubility (μM)” value is 1.6 µM and the “Water Solubility (μg/ml)” value is 1.0 µg/mL.
For `C[C@H]1O[C@@H](O[C@H]2[C@@H](O)C[C@H](O[C@H]3[C@@H](O)C[C@H](O[C@H]4CC[C@@]5(C)[C@H](CC[C@@H]6[C@@H]5C[C@@H](O)[C@]5(C)[C@@H](C7=CC(=O)OC7)CC[C@]65O)C4)O[C@@H]3C)O[C@@H]2C)C[C@H](O)[C@@H]1O` [Digoxin], the “Partition Coefficient” value in data set [3] was 1.26. Also, in data set [4], the “Water Solubility (μM)” value was 38.4 µM and the “Water Solubility (μg/ml)” value is 30.0 µg/mL.
Regarding `C[C@@H]1C[C@H]2[C@@H]3CCC4=CC(=O)C=C[C@]4(C)[C@@]3(F)[C@@H](O)C[C@]2(C)[C@@]1(O)C(=O)CO` [Dexamethasone], the “Partition Coefficient” value in data set [3] is 1.95. Moreover, in data set [4], the “Water Solubility (μM)” value was 25.5 µM and the “Water Solubility (μg/ml)” value is 10.0 µg/mL.
Consider Poly(N-allylnicotinamide), for which the “PTX Solubility” value in data set [1] is 253 µg/mL.
As to `C=CC(=O)NC(C)C` [N-isopropylacrylamide], in data set [1], the “hydrotropic effect for paclitaxel, in words” value is given as “very small hydrotropic effects”.
As to `CN1CCN(CCCN2c3ccccc3Sc3ccc(C(F)(F)F)cc32)CC1` [Trifluoperazine], the “Partition Coefficient” value in data set [3] is given as 4.15.
Regarding Polyvinylpyrrolidone K- 17, the “PTX Solubility” value in data set [1] amounted to 0 µg/mL.
For `CCN(CC)C(=O)c1cccnc1` [N,N-diethylnicotinamide], the “hydrotropic property relative to N,N-dimethylnicotinamide” value in data set [1] was above 20 times.
Turning to `CC(C)(C)c1ccc(C(O)CCCN2CCC(C(O)(c3ccccc3)c3ccccc3)CC2)cc1` (centres unmarked) [Terfenadine], in data set [3], the “Partition Coefficient” value is recorded as 4.05. In addition, in data set [4], the “Water Solubility (μM)” value is 152.8 µM and the “Water Solubility (μg/ml)” value is 72.1 µg/mL.
As to `COC(=O)C1=C(C)NC(C)=C(C(=O)OC)C1c1ccccc1[N+](=O)[O-]` [Nifedifine], the “Partition Coefficient” value in data set [3] was 2.20. Besides, in data set [4], the “Water Solubility (μM)” value is 28.9 µM and the “Water Solubility (μg/ml)” value is 10.0 µg/mL.
Take `C#C[C@]1(O)CC[C@H]2[C@@H]3CCC4=CC(=O)CC[C@@H]4[C@H]3CC[C@@]21C` [Norethindrone]: in data set [3], the “Partition Coefficient” value is 3.15.
Turning to Polyvinylpyrrolidone K-90, the “PTX Solubility” value in data set [1] turned out to be 2 µg/mL.
Regarding `O=C1CCC(N2C(=O)c3ccccc3C2=O)C(=O)N1` (centres unmarked) [Thalidomide], in data set [3], the “Partition Coefficient” value is 0.64. In data set [4], the “Water Solubility (μM)” value was 77.5 µM and the “Water Solubility (μg/ml)” value was 20.0 µg/mL.
The molecule `CC(=O)OCC(COC(C)=O)OC(C)=O` [glyceryl triacetate] registered a solubility in the data set “physchem” of 200 mM.
In the case of `CCOc1ccc(NC(C)=O)cc1` [Phenacetin], in data set [3], the “Partition Coefficient” value is given as 1.55.
For `CCN(CC)C(=O)c1cccnc1O` [2-hydroxy-N,N-diethylnicotinamide], the “PTX Solubility” value in data set [1] was determined as 0 µg/mL. In “physchem”, this molecule gave a solubility of 200 mM (≈ 38800 µg/mL).
Turning to `CN(C)CCCN1c2ccccc2Sc2ccc(Cl)cc21` [Chlorpromazine], the “Partition Coefficient” value in data set [3] is listed as 3.17. In data set [4], the “Water Solubility (μM)” value is 94.1 µM and the “Water Solubility (μg/ml)” value was 30.0 µg/mL.
Turning to Polyvinylpyrrolidone K-30, the “PTX Solubility” value in data set [1] amounted to 1 µg/mL.
As to `NC(=O)c1ccncc1C(N)=O` [3,4-pyridinedicarboxamide], in data set [1], the “PTX Solubility” value stood at 0 µg/mL. This molecule also gave a solubility in “physchem” of 25 mM (≈ 4130 µg/mL).
Consider `O=C1NC(=O)C(c2ccccc2)(c2ccccc2)N1` [Phenytoin], for which the “Partition Coefficient” value in data set [3] is on record as 2.47. Further, in data set [4], the “Water Solubility (μM)” value is 79.3 µM and the “Water Solubility (μg/ml)” value is 20.0 µg/mL.
With `CCC(C)n1ncn(-c2ccc(N3CCN(c4ccc(OCC5COC(Cn6cncn6)(c6ccc(Cl)cc6Cl)O5)cc4)CC3)cc2)c1=O` (centres unmarked) [Itraconazole], in data set [3], the “Partition Coefficient” value is on record as 5.66. Further, in data set [4], the “Water Solubility (μM)” value was 2.8 µM and the “Water Solubility (μg/ml)” value was 2.0 µg/mL.
`COc1ccc2c(c1)c(CC(=O)O)c(C)n2C(=O)c1ccc(Cl)cc1` [Indomethacin]: the “Partition Coefficient” value in data set [3] is on record as 4.27. Besides, in data set [4], the “Water Solubility (μM)” value was 55.9 µM and the “Water Solubility (μg/ml)” value was 20.0 µg/mL.
On to `Nc1ccc(C(=O)O)c(O)c1` [4-aminosalicylic acid], for which, in the data set “physchem”, the concentration in solution (solubility) was 5 mM (≈ 766 µg/mL).
Take `COC(=O)Nc1nc2ccc(C(=O)c3ccccc3)cc2[nH]1` [Mebendazole]: the “Partition Coefficient” value in data set [3] is 2.83.
Take `CC(C)N(C(=O)c1cccnc1)C(C)C` [diisopropylnicotinamide, N,N-diisopropylnicotinamide]: the concentration in solution in “physchem” (solubility) was 50 mM (≈ 10300 µg/mL).
For the molecule “Poly(2-methacryloyloxyethyl phosphorylcholine-co-N-isopropylacrylamide)”, the “PTX Solubility” value in data set [1] stood at 42 µg/mL.
Still for that read-out and setting: with Pluronic P85 the figure was 118 µg/mL.
With `C[C@]12CC[C@@H]3c4ccc(O)cc4CC[C@H]3[C@@H]1CCC2=O` [Estrone], the “Partition Coefficient” value in data set [3] was 3.69.
In the case of `NC(=O)c1cccc(C(N)=O)n1` [2,6-pyridinedicarboxamide], the “PTX Solubility” value in data set [1] came out at 0 µg/mL. Further, the concentration in solution in “physchem” (solubility) was 2.5 mM (≈ 413 µg/mL).
Turning to Poly(Sodium 4-acrylamidosalicylate), the “PTX Solubility” value in data set [1] came out at 28 µg/mL.
In turn, `CCN(CC)C(=O)c1ccc(=O)[nH]c1` [6-Hydroxy-N,N-diethylnicotinamide] gave a solubility in data set [2] of 2000 mM (≈ 388000 µg/mL).
On to `O=C(O)Cc1ccccc1Nc1c(Cl)cccc1Cl` [Diclofenac], for which the “Partition Coefficient” value in data set [3] is reported as 1.12. In data set [4], the “Water Solubility (μM)” value is 10.1 µM and the “Water Solubility (μg/ml)” value was 3.0 µg/mL.
As to `CCCCNC(=O)NS(=O)(=O)c1ccc(C)cc1` [Tolbutamide], in data set [4], the “Water Solubility (μM)” value is 202.6 µM and the “Water Solubility (μg/ml)” value is 54.8 µg/mL.
For the molecule `CNC(C)=O` [N-methylacetamide], the “hydrotropic effect for paclitaxel, in words” value in data set [1] was “very small hydrotropic effects”. In data set [1] (hydrotropic agent […]), the “PTX Solubility” value came to 12 µg/mL.
In the case of Poly(sodium 6-allyloxynicotinic acid), the “PTX Solubility” value in data set [1] is 3 µg/mL.
Regarding `CC/C(=C(/CC)c1ccc(O)cc1)c1ccc(O)cc1` [Diethylstilbestrol], the “Partition Coefficient” value in data set [3] is recorded as 4.50. In data set [4], the “Water Solubility (μM)” value is 7.5 µM and the “Water Solubility (μg/ml)” value was 2.0 µg/mL.
Regarding `CC(=O)S[C@@H]1CC2=CC(=O)CC[C@]2(C)[C@H]2CC[C@@]3(C)[C@@H](CC[C@@]34CCC(=O)O4)[C@H]12` [Spironolactone], the “Partition Coefficient” value in data set [3] is reported as 2.78. Also, in data set [4], the “Water Solubility (μM)” value is 72.0 µM and the “Water Solubility (μg/ml)” value is 30.0 µg/mL.
In the case of `COC(=O)C1=C(C)NC(C)=C(C(=O)OCCN(C)Cc2ccccc2)C1c1cccc([N+](=O)[O-])c1` (centres unmarked) [Nicardipine], in data set [3], the “Partition Coefficient” value was 3.62. Besides, in data set [4], the “Water Solubility (μM)” value is 7.1 µM and the “Water Solubility (μg/ml)” value is 3.4 µg/mL.
Regarding `NC(N)=O` [urea], the “PTX Solubility” value in data set [1] is 1 µg/mL.
`Nc1ncnc2c1ncn2[C@@H]1O[C@H](CO)[C@@H](O)[C@H]1O` [adenosine] returned a solubility in “physchem” of 5 mM (≈ 1340 µg/mL). This lies in the millimolar range.
`O=C1NS(=O)(=O)c2ccccc21` [o-benzoic acid sulfimide]: in data set [2] (in water), the “maximum solubility (water solubility) of the hydrotropic agent” value came out at 10 mM.
Consider `C=C(C)C(=O)OCCOP(=O)([O-])OCC[N+](C)(C)C` [2-methacryloyloxyethyl phosphorylcholine], for which the “PTX Solubility” value in data set [1] worked out at 3199 µg/mL.
